In ChEMBL document CHEMBL1201862, “PubChem BioAssay data set” (2004):
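1) Cells in 96-well plates. 2) Compound, 48 h, 5 concentrations. 3) Linear interpolation between surrounding doses. 4) Unreached endpoint = highest concentration. GI50 = concentration required for 50% inhibition of growth.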 Activity calls are given as the source filed them. Cut-off read from the data, not from the text of the source: active = GI50 up to about 1.1 µM and inactive = higher.

Assays:
Test in all cases: DTP human tumour cell line panel, 48 h
MCF7 = tested on: MCF7
RPMI-8226 = tested on: RPMI-8226
TK-10 = tested on: TK-10
PC-3 = tested on: PC-3
SF-268 = tested on: SF-268
DU-145 = tested on: DU-145
KM12 = tested on: KM12
A498 = tested on: A498
SK-MEL-2 = tested on: SK-MEL-2
K562 = tested on: K562
SK-MEL-5 = tested on: SK-MEL-5
RXF 393 = tested on: RXF 393
SW-620 = tested on: SW-620
M14 = tested on: M14
Hs-578T = tested on: Hs-578T
MDA-N = tested on: MDA-N
MOLT-4 = tested on: MOLT-4
CCRF-CEM = tested on: CCRF-CEM
SK-OV-3 = tested on: SK-OV-3

Measured: GI50

C=CC(c1ccccc1)C1(O)c2cccc(O)c2C(=O)c2c(O)cccc21 (centres undefined)
inactive: MCF7 17.1 µM | RPMI-8226 18.5 µM | TK-10 19.2 µM | PC-3 13.9 µM | SF-268 17.3 µM | DU-145 14.5 µM | KM12 12.8 µM | A498 19.6 µM | SK-MEL-2 12.4 µM | K562 6.64 µM | SK-MEL-5 17.3 µM | RXF 393 14.2 µM | SW-620 15.1 µM | M14 18.4 µM | Hs-578T 15.8 µM | MDA-N 5.57 µM | MOLT-4 11.9 µM

CCCCCCCCCCCCCCCC(=O)OC(COC(C)=O)CO[PH](=O)O (centres undefined)
inactive: MCF7 > 100 µM | RPMI-8226 78.2 µM | TK-10 29 µM | PC-3 30.5 µM | SF-268 19.3 µM | DU-145 71.4 µM | KM12 18.3 µM | A498 > 100 µM | SK-MEL-2 19.5 µM | K562 > 100 µM | SK-MEL-5 > 100 µM | RXF 393 36 µM | SW-620 33.2 µM | M14 14.7 µM | Hs-578T 11.8 µM | MDA-N 31.3 µM | MOLT-4 31.3 µM | CCRF-CEM 37.2 µM

CC(C)(C)NC(=O)N1N=C(c2ccccc2)C1c1ccccc1 (centres undefined)
inactive: MCF7 41.7 µM | RPMI-8226 22.5 µM | TK-10 26 µM | PC-3 26.6 µM | SF-268 66.5 µM | DU-145 > 100 µM | KM12 47.6 µM | A498 > 100 µM | SK-MEL-5 20.2 µM | SK-OV-3 > 100 µM | RXF 393 14 µM | SW-620 31.1 µM | M14 61.5 µM | Hs-578T 48.3 µM | MDA-N 44.6 µM | CCRF-CEM 22.6 µM

Cn1ccnc1CC(C)(O)c1ccccc1 (centres undefined)
inactive: MCF7 > 100 µM | RPMI-8226 > 100 µM | TK-10 > 100 µM | PC-3 > 100 µM | SF-268 > 100 µM | DU-145 > 100 µM | KM12 > 100 µM | A498 > 100 µM | SK-MEL-2 > 100 µM | K562 > 100 µM | SK-MEL-5 > 100 µM | SK-OV-3 > 100 µM | RXF 393 > 100 µM | SW-620 > 100 µM | M14 > 100 µM | Hs-578T > 100 µM | MDA-N > 100 µM

O=C1/C(=C/c2ccc(Br)s2)NC(=S)N1CN1CCOCC1
inactive: MCF7 25.1 µM | RPMI-8226 16.7 µM | TK-10 50.6 µM | PC-3 78.9 µM | SF-268 87.7 µM | DU-145 53.2 µM | KM12 84.3 µM | A498 35.9 µM | SK-MEL-2 71.9 µM | K562 25.8 µM | SK-MEL-5 50 µM | RXF 393 21.3 µM | SW-620 36.4 µM | Hs-578T 65.3 µM | MDA-N 52 µM | MOLT-4 32.7 µM
